Data from US12496301B2, “Use of androgen receptor degrader for the treatment of spinal and bulbar muscular atrophy” (Arvinas Operations, Inc., priority 2023, dated 2025).
Read-outs that look alike come from different tables or passages of the source.

What was measured:
polyQ-AR [1] = experiment: Myotube high content imaging of polyQ-AR in myotubes that overexpress polyQ-AR; format: cell-based, human; settings: 24 hours treatment, nuclear compartment
Experimental: Cells were maintained in skeletal growth medium (PromoCell #23160). Immortalized myoblasts harboring inducible human androgen receptor with 56 CAG repeats (hAR56Q) were constructed by lentiviral transduction with CMV-rtTA and TetO-AR56Q-T2A-Puromycin (Mamchaoui, K. et al. Skeletal Muscle 1, 34 (2011)).
On day 0, immortalized myoblasts with inducible polyQ-AR (described above in “Cell lines”) cells were seeded onto Geltrex-coated 96-well plates at a density of 4×10^6 cells per plate in myoblast basal media (Promocell C-23060) supplemented with 1% penicillin-streptomycin (Pen Strep) antibiotics. The plates were then incubated overnight at 37° C. in a 5% CO2 environment. Upon reaching 100% confluency (Day 1), the myoblast media were aspirated and replaced with myotube differentiation media (Promocell C-23061). The cells were cultured in this differentiation media for 6 days, with media changes occurring every three days.
On the sixth day of differentiation, the compounds and doxycycline ([…]) diluted in 100% dimethyl sulfoxide (DMSO) were added to the myotubes. The plate was then incubated for 24 hours at 37° C. in an incubator. On the following day (Day 7), the culture media was removed from the plates and replaced with 50 μL of 4% paraformaldehyde (PFA) prepared in 1× phosphate-buffered saline (PBS). The plates were incubated with PFA for 15 minutes, followed by three washes with PBS. Subsequently, the myotubes were permeabilized for 15 minutes using 0.5% Triton X-100 in 1×PBS and then blocked with 5% Bovine Serum Albumin (BSA) (Thermofisher, #37520) for one hour at room temperature. After blocking, the plates were incubated overnight at 4° C. with primary antibodies: a 1:100 diluted Androgen Receptor antibody (D6F11 Cell Signaling 5135S) and a 1:200 diluted Desmin antibody (Thermofisher, MA1-22150) in PBS containing 0.1% BSA. […] Degradation was quantified by determining the average intensity of AR within separate nuclear and cytoplasmic compartments in Desmin positive area (myotubes).

polyQ-AR [2] = experiment: polyQ-AR degradation in SBMA patient hiPSC-derived myotubes, capillary immunoassay; format: cell-based, human; settings: two donor hiPSC lines, 24 hours
Experimental: Lysates for hiPSC-derived myotubes were prepared in lysis buffer ([…], 50 mM sodium chloride, 1% NP-40, 1% SDS) supplemented with Halt Protease Inhibitor (78437 Thermo Fisher Scientific), Benzonase, and MgCl2 (1 mM final concentration). The lysates were cleared by centrifugation at 4° C. and supernatants were quantified using the BIO-RAD DC protein assay (5000112 BIO-RAD). The AR and protein levels were quantified by an automated capillary immunoassay experiment (ProteinSimple). The AR and Myosin Protein levels were quantified and normalized to total protein.
(§1) Control and SBMA hiPSCs were differentiated into myotubes as previously described (Caron, L. et al. 2016, STEM CELLS Transl. Med. 5, 1145-1161) using the skeletal muscle differentiation kit (Amsbio). hiPSCs were dissociated to single cells using Accutase and plated on Geltrex-coated 10 cm culture plates at a density of 200,000 cells per plate with SBMA hiPSCs in skeletal muscle induction media (SKM01, AMSBIO). Media changes were performed every second day until cells were confluent (˜7 days). The resulting myogenic precursor cells were then dissociated to single cells using Accutase and replated on Matrigel-coated 24-well tissue culture plate with 500 μL of cells at 35,000 cells per mL in skeletal myoblast media (SKM02, AMSBIO). Half media changes were performed every second day until myoblasts reached confluence (˜7 days). The media was then switched to myotube medium (SKM03, ASMBIO). Media changes every second day until myotube formation was confirmed by microscopy. Myotubes were treated on day 20 of differentiation (6 days' worth of SKM03 media) with compounds diluted in DMSO for a final DMSO concentration of 0.01% in SKM03 media. The cells were lysed 24 hours later in Pierce RIPA buffer (Cat. No. 89900, ThermoFisher) supplemented with 1× Halt protease inhibitor cocktail (Cat. No. 87786, ThermoFisher), 1 mM MgCl2, and 1 μL Benzonase Nuclease. AR protein was measured by capillary electrophoresis. […]

human AR100Q = experiment: hAR100Q (polyQ-AR) degradation in muscle of hAR100Q mice, capillary immunoassay; format: in vivo
Experimental: Mouse endogenous AR, human AR100Q, and high molecular weight hAR100Q from hAR100Q mice were quantified by capillary immunoassay. Tissue lysates were prepared as described above using antibodies to AR and resolved by capillary electrophoresis (ProteinSimple). High molecular weight AR was quantified as the area under the curve (AUC) from 300 to 600 kDa.
A parallel cohort of hAR100Q mice was maintained in order to evaluate AR degradation at the 11-week timepoint. hAR100Q mice in this tissue cohort were fed chow identical to the mice that underwent muscle strength and endurance tests and were euthanized at 11-weeks of age.

AR = AR degradation in hiPSC myotubes in the presence of dihydrotestosterone (DHT); format: cell-based, human
From the text: FIG. 11 is a representative dose response curve showing mean AR concentration in DMSO treated cells plotted against Compound A concentration in SBMA patient-derived hiPSC lines differentiated into myotubes.
as §1, with “Myotubes were treated on day 20 of differentiation (6 days' worth of SKM03 media) with compounds diluted in DMSO for a final DMSO concentration of 0.01% in SKM03 media. The cells were lysed 24 hours later in Pierce RIPA buffer (Cat. No. 89900, ThermoFisher) supplemented with 1× Halt protease inhibitor cocktail (Cat. No. 87786, ThermoFisher), 1 mM MgCl2, and 1 μL Benzonase Nuclease.” left out

In the case of `CC(C)N(CC1CCN(c2ncc(C(=O)N[C@H]3C(C)(C)[C@H](Oc4ccc(C#N)c(Cl)c4)C3(C)C)cn2)CC1)[C@H]1C[C@H](Oc2ccc3c(c2)C(=O)N(C2CCC(=O)NC2=O)C3=O)C1` (some centres unmarked) [Compound A, N-((1r,3r)-3-(3-chloro-4-cyanophenoxy)-2,2,4,4-tetramethylcyclobutyl)-2-(4-((((1r,3r)-3-((2-(2,6-dioxopiperidin-3-yl)-1,3-dioxoisoindolin-5-yl)oxy)cyclobutyl)(isopropyl)amino)methyl)piperidin-1-yl)pyrimidine-5-carboxamide], the “mean Dmax for polyQ-AR in myotube nuclei” value (polyQ-AR [1]) is reported as “approximately 40%”, the DC50 (polyQ-AR [2]) is reported as 0.6 to 0.8 nM and the “Dmax, polyQ-AR in SBMA hiPSC-myotubes” value (polyQ-AR [2]) is reported as 83-96%. For the same compound, the “reduction of monomeric hAR100Q (polyQ-AR) in LABC vs vehicle” value (human AR100Q; LABC, 11 weeks of age, chow approx. 15 mg/kg) was 70%, the “reduction of polyQ-AR (hAR100Q) in quadriceps” value (human AR100Q; quadriceps) was 43% and the “AR/polyQ-AR degraded in the quadriceps muscle” value (human AR100Q; quadriceps, AR and polyQ-AR together) was 40-60%. For the same compound, the DC50 (AR; DHT present at 500 pM, read-out: DC50 in hiPSC myotubes with DHT) was 5.9 nM and the DC50 (AR; without any DHT (0 pM), read-out: DC50 in hiPSC myotubes without DHT) was 0.5 nM.
